Assay results: EP0335369A2, “New anthracycline derivatives and processes for the preparation of the same” (priority 1988, dated 1989)
In brackets after ≈: the same amount, converted by molar mass.

Key:
Leukemia L-1210 cells [1] = experiment: Test 1: antitumor activity against leukemia induced in CDF1 mice by Leukemia L-1210 cells (life-span increase); type: in vivo; settings: intraperitoneally once per day for 9 consecutive days, observation 60 days
Method: Antitumor activities against leukemia in CDF, mice as induced by mouse leukemia, Leukemia L-1210 cells
After an elapsed time of 24 hours, a compounds of the formula (I) of this invention to be tested was administered intraperitoneally for 9 consecutive days once per day. Observation was made for 60 days, where survival days of each mouse tested were recorded. In comparison with the control test wherein mice were treated with the administration of physiological saline alone, the increase (%) in the life-span of the treated mice was calculated as T/C %, where T is the mean survival days of the treated animals and C is the mean survival days of the untreated control animals. For the comparison, daunomycin and adriamycin were also tested in the same manner.

Leukemia L-1210 cells [2] = experiment: Test 3: antitumor activity against leukemia induced in CDF1 mice by Leukemia L-1210 cells (procedure of Test 1 repeated); type: in vivo; settings: for % Increase in life-span (T/C, %): intraperitoneally once per day for 9 consecutive days, observation 60 days
Method: Antitumor activities against leukemia in CDF1 mice as induced by mouse leukemia, Leukemia L-1210 cells
To evaluate the antitumor effects of the compounds of the formula (I') according to the sixth aspect of this invention against experimental tumors in animals, the procedure of Test 1 given hereinbefore is repeated. Thus, CDF1 mice were intraperitoneally transplanted with cells of Leukemia L-1210 (at a dose of 1 x 10^5 cells/mouse). After an elapsed time of 24 hours from the tumor transplantation, a test compound of the formula (I') of the sixth aspect invention to be evaluated was administered intraperitoneally for 9 consecutive days once per day. Observation was made for 60 day, where survival days of each mouse tested were recorded. In comparison with the control test wherein mice were treated with the administration of physiological saline alone, the increase (%) in the life-span of the treated mice was calculated as T/C %, where T is the mean survival days of the treated animals and C is the mean survival days of the untreated control animals. For the comparison, daunomycin and adriamycin were also tested in the same manner.

[3] = Solubility in phosphate buffer solution of pH 7.4 at room temperature; type: physicochemical; settings: aqueous buffer; compounds (Ic); phosphate buffer solution of pH 7.4 (0.05 M KH2PO4-NaOH), room temperature; read-out: Solubility

SMILES | % Increase in life-span (T/C, %) (Leukemia L-1210 cells [1]; Dose 0.15 mg/kg/day) | % Increase in life-span (T/C, %) (Leukemia L-1210 cells [1]; Dose 0.3 mg/kg/day) | % Increase in life-span (T/C, %) (Leukemia L-1210 cells [1]; Dose 0.6 mg/kg/day) | % Increase in life-span (T/C, %) (Leukemia L-1210 cells [1]; Dose 1.25 mg/kg/day) | % Increase in life-span (T/C, %) (Leukemia L-1210 cells [1]; Dose 2.5 mg/kg/day) | % Increase in life-span (T/C, %) (Leukemia L-1210 cells [1]; Dose 5 mg/kg/day) | % Increase in life-span (T/C, %) (Leukemia L-1210 cells [2]; Dose 0.15 mg/kg/day) | % Increase in life-span (T/C, %) (Leukemia L-1210 cells [2]; Dose 0.3 mg/kg/day) | % Increase in life-span (T/C, %) (Leukemia L-1210 cells [2]; Dose 0.6 mg/kg/day) | % Increase in life-span (T/C, %) (Leukemia L-1210 cells [2]; Dose 1.25 mg/kg/day) | % Increase in life-span (T/C, %) (Leukemia L-1210 cells [2]; Dose 2.5 mg/kg/day) | % Increase in life-span (T/C, %) (Leukemia L-1210 cells [2]; Dose 5 mg/kg/day) | solubility [3] | complete cure of the leukemia in the mice (Leukemia L-1210 cells [2]; intraperitoneally, 0.15 mg/kg/day)
COc1cccc2c1C(=O)c1c(O)c3c(c(O)c1C2=O)C[C@@](O)(C(=O)CO)C[C@@H]3O[C@@H]1O[C@@H](C)[C@@H](O)[C@@H](O)[C@H]1F [7-0-(2,6-Dideoxy-2-fluoro-α-L-talopyranosyl) adriamycinone, reference compound] | 127% | 182% | 185% | 275% | >350% | >750% | 127% | 182% | 185% | 275% | >350% | >750% | – | –
COc1cccc2c1C(=O)c1c(O)c3c(c(O)c1C2=O)C[C@@](O)(C(C)=O)C[C@@H]3O[C@@H]1O[C@@H](C)[C@@H](O)[C@@H](O)[C@H]1F [7-0-(2,6-Dideoxy-2-fluoro-α-L-talopyranosyl) daunomycinone, reference compound] | 105% | 105% | 118% | 171% | 217% | 184% | 105% | 105% | 118% | 171% | 217% | 184% | – | –
COc1cccc2c1C(=O)c1c(O)c3c(c(O)c1C2=O)C[C@@](O)(C(=O)CO)C[C@@H]3O[C@H]1C[C@H](N)[C@H](O)[C@H](C)O1 [Adriamycin, reference compound] | 123% | 136% | 142% | 222% | 228% | 191% | 123% | 136% | 142% | 222% | 228% | 191% | – | –
COc1cccc2c1C(=O)c1c(O)c3c(c(O)c1C2=O)C[C@@](O)(C(C)=O)C[C@@H]3O[C@H]1C[C@H](N)[C@H](O)[C@H](C)O1 [Daunomycin, reference compound] | 130% | 133% | 166% | 193% | 151% | 117% | 130% | 133% | 166% | 193% | 151% | 117% | – | –
COc1cccc2c1C(=O)c1c(O)c3c(c(O)c1C2=O)C[C@@](O)(C(C)=O)C[C@@H]3O[C@@H]1O[C@@H](C)[C@H](O)[C@@H](O)[C@H]1F [Example 1, 7-0-(2,6-dideoxy-2-fluoro-a-L-mannopyranosyl)daunomycinone] | 109% | 123% | 189% | >309% | 280% | 160% | – | – | – | – | – | – | – | –
CC(=O)[C@]1(O)Cc2c(O)c3c(c(O)c2[C@@H](O[C@@H]2O[C@@H](C)[C@H](O)[C@@H](O)[C@H]2F)C1)C(=O)c1ccccc1C3=O [Example 2, 4-demethoxy-7-O-(2,6-dideoxy-2-fluoro-α-L-mannopyranosyl)daunomycinone] | 113% | 163% | 309% | > 686% | 134% | 73% | – | – | – | – | – | – | – | –
COc1cccc2c1C(=O)c1c(O)c3c(c(O)c1C2=O)C[C@@](O)(C(=O)CO)C[C@@H]3O[C@@H]1O[C@@H](C)[C@H](O)[C@@H](O)[C@H]1F [Example 3, 7-O-(2,6-dideoxy-2-fluoro-a-L-mannopyranosyl)adriamycinone] | 157% | >440% | >363% | >426% | 231% | 211% | – | – | – | – | – | – | – | –
C[C@@H]1O[C@@H](O[C@H]2C[C@](O)(C(=O)CO)Cc3c(O)c4c(c(O)c32)C(=O)c2ccccc2C4=O)[C@H](F)[C@H](O)[C@H]1O [Example 4, 7-O-(2,6-dideoxy-2-fluoro-a-L-mannopyranosyl)-4-demethoxyadriamycinone] | >534% | >686% | >686% | 141% | 53% | 22% | – | – | – | – | – | – | – | –
COc1cccc2c1C(=O)c1c(O)c3c(c(O)c1C2=O)C[C@@](O)(C(=O)COC(=O)CCC(=O)O)C[C@@H]3O[C@@H]1O[C@@H](C)[C@H](O)[C@@H](O)[C@H]1F [Example 6, 7-O-(2,6-dideoxy-2-fluoro-α-L-mannopyranosyl)adriamycinone 14-0-hemisuccinate] | – | – | – | – | – | – | – | – | – | – | – | – | 25 mg/mL (≈ 37.7 mM) | –
COc1cccc2c1C(=O)c1c(O)c3c(c(O)c1C2=O)C[C@@](O)(C(=O)COC(=O)CCCC(=O)O)C[C@@H]3O[C@@H]1O[C@@H](C)[C@H](O)[C@@H](O)[C@H]1F [Example 7, 7-0-(2,6-dideoxy-2-fluoro-a-L-. mannopyranosyl)adriamycinone 14-0-hemiglutarate] | – | – | – | – | – | – | – | – | – | – | – | – | 28 mg/mL (≈ 41.4 mM) | –
COc1cccc2c1C(=O)c1c(O)c3c(c(O)c1C2=O)C[C@@](O)(C(=O)COC(=O)CCCCC(=O)O)C[C@@H]3O[C@@H]1O[C@@H](C)[C@H](O)[C@@H](O)[C@H]1F [Example 8, 7-0-(2,6-dideoxy-2-fluoro-a-L-mannopyranosyl)adriamycinone 14-0-hemiadipate] | – | – | – | – | – | – | – | – | – | – | – | – | 32 mg/mL (≈ 46.3 mM) | –
COc1cccc2c1C(=O)c1c(O)c3c(c(O)c1C2=O)C[C@@](O)(C(=O)COC(=O)CCCCCCC(=O)O)C[C@@H]3O[C@@H]1O[C@@H](C)[C@H](O)[C@@H](O)[C@H]1F [Example 10, 7-O-(2,6-dideoxy-2-fluoro-α-L-mannopyranosyl)adriamycinone 14-0-hemisuberate] | – | – | – | – | – | – | – | – | – | – | – | – | 30 mg/mL (≈ 41.7 mM) | –
CC(=O)[C@]1(O)Cc2c(O)c3c(c(O)c2[C@@H](O[C@@H]2O[C@@H](C)[C@@H](O)[C@@H](O)[C@H]2F)C1)C(=O)c1ccccc1C3=O [Example 12, 4-demethoxy-7-O-(2,6-dideoxy-2-fluoro-α-L-talopyranosyl)daunomycinone] | – | – | – | – | – | – | 106% | 138% | 202% | > 436% | 101% | 80% | – | –
C[C@@H]1O[C@@H](O[C@H]2C[C@](O)(C(=O)CO)Cc3c(O)c4c(c(O)c32)C(=O)c2ccccc2C4=O)[C@H](F)[C@H](O)[C@@H]1O [Example 13, 4-demethoxy-7-O-(2,6-dideoxy-2-fluoro-a-L-talopyranosyl)adriamycinone] | – | – | – | – | – | – | – | >348% | >427% | 96% | 80% | 77% | – | three mice were completely cured among the treated four mice
